Experimental data as given in ChEMBL document CHEMBL5154747, “Discovery of new carbonic anhydrase IX inhibitors as anticancer agents by toning the hydrophobic and hydrophilic rims of the active site to encounter the dual-tail approach” (Eur J Med Chem, 2022).

Assays:
[1] = system: TK-10; assay: Anticancer activity against human TK-10 cells assessed as cell growth inhibition at 10 uM incubated for 48 hrs by SRB assay relative to control; assay type: functional; conditions: read-out: GI
[2] = system: COLO 205; assay: Anticancer activity against human COLO 205 cells assessed as cell growth inhibition at 10 uM incubated for 48 hrs by SRB assay relative to control; assay type: functional; conditions: read-out: GI
[3] = system: OVCAR-3; assay: Anticancer activity against human OVCAR-3 cells assessed as cell growth inhibition at 10 uM incubated for 48 hrs by SRB assay relative to control; assay type: functional; conditions: read-out: GI
[4] = system: A549; assay: Anticancer activity against human A549 cells assessed as cell growth inhibition at 10 uM incubated for 48 hrs by SRB assay relative to control; assay type: functional; conditions: read-out: GI
[5] = system: OVCAR-8; assay: Anticancer activity against human OVCAR-8 cells assessed as cell growth inhibition at 10 uM incubated for 48 hrs by SRB assay relative to control; assay type: functional; conditions: read-out: GI
[6] = system: MDA-MB-468; assay: Anticancer activity against human MDA-MB-468 cells assessed as cell growth inhibition at 10 uM incubated for 48 hrs by SRB assay relative to control; assay type: functional; conditions: read-out: GI
[7] = system: NCI-H460; assay: Anticancer activity against human NCI-H460 cells assessed as cell growth inhibition at 10 uM incubated for 48 hrs by SRB assay relative to control; assay type: functional; conditions: read-out: GI
[8] = system: SF-539; assay: Anticancer activity against human SF-539 cells assessed as cell growth inhibition at 10 uM incubated for 48 hrs by SRB assay relative to control; assay type: functional; conditions: read-out: GI
[9] = system: EKVX; assay: Anticancer activity against human EKVX cells assessed as cell growth inhibition at 10 uM incubated for 48 hrs by SRB assay relative to control; assay type: functional; conditions: read-out: GI
[10] = system: LOX IMVI; assay: Anticancer activity against human LOX IMVI cells assessed as cell growth inhibition at 10 uM incubated for 48 hrs by SRB assay relative to control; assay type: functional; conditions: read-out: GI
[11] = system: OVCAR-5; assay: Anticancer activity against human OVCAR-5 cells assessed as cell growth inhibition at 10 uM incubated for 48 hrs by SRB assay relative to control; assay type: functional; conditions: read-out: GI
[12] = system: SNB-19; assay: Anticancer activity against human SNB-19 cells assessed as cell growth inhibition at 10 uM incubated for 48 hrs by SRB assay relative to control; assay type: functional; conditions: read-out: GI
[13] = system: UO-31; assay: Anticancer activity against human UO-31 cells assessed as cell growth inhibition at 10 uM incubated for 48 hrs by SRB assay relative to control; assay type: functional; conditions: read-out: GI
[14] = system: T47D; assay: Anticancer activity against human T47D cells assessed as cell growth inhibition at 10 uM incubated for 48 hrs by SRB assay relative to control; assay type: functional; conditions: read-out: GI
[15] = system: RXF 393; assay: Anticancer activity against human RXF 393 cells assessed as cell growth inhibition at 10 uM incubated for 48 hrs by SRB assay relative to control; assay type: functional; conditions: read-out: GI
[16] = system: K562; assay: Anticancer activity against human K562 cells assessed as cell growth inhibition at 10 uM incubated for 48 hrs by SRB assay relative to control; assay type: functional; conditions: read-out: GI
[17] = system: U-251; assay: Anticancer activity against human U-251 cells assessed as cell growth inhibition at 10 uM incubated for 48 hrs by SRB assay relative to control; assay type: functional; conditions: read-out: GI
[18] = system: RPMI-8226; assay: Anticancer activity against human RPMI-8226 cells assessed as cell growth inhibition at 10 uM incubated for 48 hrs by SRB assay relative to control; assay type: functional; conditions: read-out: GI
[19] = system: A498; assay: Anticancer activity against human A498 cells assessed as cell growth inhibition at 10 uM incubated for 48 hrs by SRB assay relative to control; assay type: functional; conditions: read-out: GI
[20] = system: 786-0; assay: Anticancer activity against human 786-0 cells assessed as cell growth inhibition at 10 uM incubated for 48 hrs by SRB assay relative to control; assay type: functional; conditions: read-out: GI
[21] = system: Hs-578T; assay: Anticancer activity against human Hs-578T cells assessed as cell growth inhibition at 10 uM incubated for 48 hrs by SRB assay relative to control; assay type: functional; conditions: read-out: GI
[22] = system: PC-3; assay: Anticancer activity against human PC-3 cells assessed as cell growth inhibition at 10 uM incubated for 48 hrs by SRB assay relative to control; assay type: functional; conditions: read-out: GI
[23] = biological target: Carbonic anhydrase 9 (Homo sapiens, UniProt Q16790); assay: Inhibition of recombinant human CA 9 preincubated for 15 mins by phenol red dye based stopped flow CO2 hydration assay
[24] = system: MCF7; assay: Anticancer activity against human MCF7 cells assessed as cell growth inhibition at 10 uM incubated for 48 hrs by SRB assay relative to control; assay type: functional; conditions: read-out: GI
[25] = system: MOLT-4; assay: Anticancer activity against human MOLT-4 cells assessed as cell growth inhibition at 10 uM incubated for 48 hrs by SRB assay relative to control; assay type: functional; conditions: read-out: GI
[26] = system: HT-29; assay: Anticancer activity against human HT-29 cells assessed as cell growth inhibition at 10 uM incubated for 48 hrs by SRB assay relative to control; assay type: functional; conditions: read-out: GI
[27] = system: MDA-MB-231; assay: Anticancer activity against human MDA-MB-231 cells assessed as cell growth inhibition at 10 uM incubated for 48 hrs by SRB assay relative to control; assay type: functional; conditions: read-out: GI
[28] = system: SK-MEL-2; assay: Anticancer activity against human SK-MEL-2 cells assessed as cell growth inhibition at 10 uM incubated for 48 hrs by SRB assay relative to control; assay type: functional; conditions: read-out: GI
[29] = system: HOP-92; assay: Anticancer activity against human HOP-92 cells assessed as cell growth inhibition at 10 uM incubated for 48 hrs by SRB assay relative to control; assay type: functional; conditions: read-out: GI
[30] = system: Malme-3M; assay: Anticancer activity against human Malme-3M cells assessed as cell growth inhibition at 10 uM incubated for 48 hrs by SRB assay relative to control; assay type: functional; conditions: read-out: GI
[31] = system: SK-MEL-5; assay: Anticancer activity against human SK-MEL-5 cells assessed as cell growth inhibition at 10 uM incubated for 48 hrs by SRB assay relative to control; assay type: functional; conditions: read-out: GI
[32] = system: SN12C; assay: Anticancer activity against human SN12C cells assessed as cell growth inhibition at 10 uM incubated for 48 hrs by SRB assay relative to control; assay type: functional; conditions: read-out: GI
[33] = system: KM12; assay: Anticancer activity against human KM12 cells assessed as cell growth inhibition at 10 uM incubated for 48 hrs by SRB assay relative to control; assay type: functional; conditions: read-out: GI
[34] = system: OVCAR-4; assay: Anticancer activity against human OVCAR-4 cells assessed as cell growth inhibition at 10 uM incubated for 48 hrs by SRB assay relative to control; assay type: functional; conditions: read-out: GI
[35] = system: HCT-15; assay: Anticancer activity against human HCT-15 cells assessed as cell growth inhibition at 10 uM incubated for 48 hrs by SRB assay relative to control; assay type: functional; conditions: read-out: GI
[36] = system: SF-268; assay: Anticancer activity against human SF-268 cells assessed as cell growth inhibition at 10 uM incubated for 48 hrs by SRB assay relative to control; assay type: functional; conditions: read-out: GI
[37] = system: NCI-H23; assay: Anticancer activity against human NCI-H23 cells assessed as cell growth inhibition at 10 uM incubated for 48 hrs by SRB assay relative to control; assay type: functional; conditions: read-out: GI
[38] = system: HOP-62; assay: Anticancer activity against human HOP-62 cells assessed as cell growth inhibition at 10 uM incubated for 48 hrs by SRB assay relative to control; assay type: functional; conditions: read-out: GI
[39] = system: SNB-75; assay: Anticancer activity against human SNB-75 cells assessed as cell growth inhibition at 10 uM incubated for 48 hrs by SRB assay relative to control; assay type: functional; conditions: read-out: GI
[40] = system: NCI-H522; assay: Anticancer activity against human NCI-H522 cells assessed as cell growth inhibition at 10 uM incubated for 48 hrs by SRB assay relative to control; assay type: functional; conditions: read-out: GI

SMILES | inhibition of growth at 10 µM [1] | inhibition of growth at 10 µM [2] | inhibition of growth at 10 µM [3] | inhibition of growth at 10 µM [4] | inhibition of growth at 10 µM [5] | inhibition of growth at 10 µM [6] | inhibition of growth at 10 µM [7] | inhibition of growth at 10 µM [8] | inhibition of growth at 10 µM [9] | inhibition of growth at 10 µM [10] | inhibition of growth at 10 µM [11] | inhibition of growth at 10 µM [12] | inhibition of growth at 10 µM [13] | inhibition of growth at 10 µM [14] | inhibition of growth at 10 µM [15] | inhibition of growth at 10 µM [16] | inhibition of growth at 10 µM [17] | inhibition of growth at 10 µM [18] | inhibition of growth at 10 µM [19] | inhibition of growth at 10 µM [20] | also measured
Cc1nn(-c2ccccc2)cc1/C=N/Nc1nc(Nc2ccccc2)nc(Nc2ccc(S(N)(=O)=O)cc2)n1 | 55% | 122% | 131% | 128% | 81% | 137% | 135% | 28% | 81% | 125% | 113% | 92% | 104% | 81% | 120% | 90% | 122% | 123% | 130% | 147% | inhibition of growth at 10 µM [21]: 86%; inhibition of growth at 10 µM [22]: 98%; Ki [23]: 207 nM; inhibition of growth at 10 µM [24]: 169%; inhibition of growth at 10 µM [25]: 93%; inhibition of growth at 10 µM [26]: 94%; inhibition of growth at 10 µM [27]: 120%; inhibition of growth at 10 µM [28]: 45%; inhibition of growth at 10 µM [29]: 113%; inhibition of growth at 10 µM [30]: 125%; inhibition of growth at 10 µM [31]: 144%; inhibition of growth at 10 µM [32]: 100%; inhibition of growth at 10 µM [33]: 90%; inhibition of growth at 10 µM [34]: 85%; inhibition of growth at 10 µM [35]: 92%; inhibition of growth at 10 µM [36]: 107%; inhibition of growth at 10 µM [37]: 114%; inhibition of growth at 10 µM [38]: 90%; inhibition of growth at 10 µM [39]: 55%; inhibition of growth at 10 µM [40]: 100%
CN(C)c1ccc(/C=N/Nc2nc(Nc3ccccc3)nc(Nc3ccc(S(N)(=O)=O)cc3)n2)cc1 | < 10% | < 10% | 14% | 26% | 31% | 14% | < 10% | 59% | < 10% | 31% | < 10% | 16% | 15% | 52% | 35% | 39% | 32% | 52% | 14% | 31% | inhibition of growth at 10 µM [21]: 37%; inhibition of growth at 10 µM [22]: 38%; Ki [23]: 13.3 nM; inhibition of growth at 10 µM [24]: 40%; inhibition of growth at 10 µM [25]: 44%; inhibition of growth at 10 µM [26]: 43%; inhibition of growth at 10 µM [27]: 13%; inhibition of growth at 10 µM [28]: 18%; inhibition of growth at 10 µM [29]: < 10%; inhibition of growth at 10 µM [30]: 25%; inhibition of growth at 10 µM [31]: 14%; inhibition of growth at 10 µM [32]: 22%; inhibition of growth at 10 µM [33]: 33%; inhibition of growth at 10 µM [34]: < 10%; inhibition of growth at 10 µM [35]: 20%; inhibition of growth at 10 µM [36]: 10%; inhibition of growth at 10 µM [37]: 13%; inhibition of growth at 10 µM [38]: 12%; inhibition of growth at 10 µM [39]: 12%; inhibition of growth at 10 µM [40]: 20%
